Results reported in patent publication US9796686B2, “Antibacterial quinazoline-4(3H)-one derivatives” (priority 2014, dated 2017).
In brackets after ≈: the same amount, converted by molar mass. Read-outs that look alike come from different tables or passages of the source.

Columns and labels:
Type in all cases: cell-based
K. pneumoniae A-651 = test: Bacterial growth minimal inhibitory concentration, microdilution in cation-adjusted Mueller-Hinton Broth (CLSI M7-A7); details: Klebsiella pneumoniae, A651; multiply-resistant strain (in particular quinolone-resistant); read-out: MIC for K. Pneumoniae A-651
Description: (§1) Minimal Inhibitory Concentrations (MICs; mg/L) were determined in cation-adjusted Mueller-Hinton Broth by a microdilution method following the description given in “Methods for Dilution Antimicrobial Susceptibility Tests for Bacteria that Grow Aerobically”, Approved standard, 7th ed., Clinical and Laboratory Standards Institute (CLSI) Document M7-A7, Wayne, Pa., U.S.A. (2006).
(§2) All Example compounds were tested against several Gram-positive and Gram-negative bacteria. […] K. pneumoniae A-651 is a multiply-resistant strain (in particular quinolone-resistant), while E. coli ATCC25922 and P. aeruginosa ATCC27853 are quinolone-sensitive strains.

P. aeruginosa ATCC27853 = test: as above; details: Pseudomonas aeruginosa, ATCC27853; quinolone-sensitive strain; read-out: MIC for P. aeruginosa ATCC27853
Description: as §1, §2

E. coli ATCC25922 = test: as above; details: Escherichia coli, ATCC25922; quinolone-sensitive strain; read-out: MIC for E. coli ATCC25922
Description: as §1, §2

wild-type E. coli A-1261 = test: MIC against wild-type E. coli A-1261 with or without alkaline phosphatase or esterase; details: Escherichia coli
Description: Minimal Inhibitory Concentrations (MICs; mg/L) were determined in cation-adjusted Mueller-Hinton Broth by a microdilution method following the description given in “Methods for Dilution Antimicrobial Susceptibility Tests for Bacteria that Grow Aerobically”, Approved standard, 7th ed., Clinical and Laboratory Standards Institute (CLSI) Document M7-A7, Wayne, Pa., U.S.A. (2006). The compound of Example 31 was tested against wild-type E. coli A-1261 in the absence of alkaline phosphatase, in the presence of an alkaline phosphatase and in the presence of an esterase. The corresponding antibacterial test results are given in Table 2 hereafter (MICs in mg/L).

Structure (SMILES)	MIC (K. pneumoniae A-651) [µg/mL]	MIC (P. aeruginosa ATCC27853) [µg/mL]	MIC (E. coli ATCC25922) [µg/mL]	MIC (wild-type E. coli A-1261; alkaline phosphatase 2 i.U./mL, read-out: MIC for E. coli A-1261 In the presence of an alkaline phosphatase (2 i.U./mL)) [µg/mL]	MIC (wild-type E. coli A-1261; esterase 10 i.U./mL, read-out: MIC for E. coli A-1261 In the presence of an esterase (10 i.U./mL)) [µg/mL]	MIC (wild-type E. coli A-1261; no alkaline phosphatase or esterase, read-out: MIC for E. coli A-1261 In the absence of alkaline phosphatase or esterase) [µg/mL]
CC(C)(O)C#CC#Cc1cc2ncn(CC[C@](C)(C(=O)NO)S(C)(=O)=O)c(=O)c2cc1F [Example 29, (R)-4-(6-fluoro-7-(5-hydroxy-5-methylhexa-1,3-diyn-1-yl)-4-oxoquinazolin-3(4H)-yl)-N-hydroxy-2-methyl-2-(methylsulfonyl)butanamide]	1 (≈ 2.16 µM)	2 (≈ 4.32 µM)	1 (≈ 2.16 µM)			
C[C@@](CCn1cnc2cc(C#CC#CC3(COP(=O)(O)O)CC3)ccc2c1=O)(C(=O)NO)S(C)(=O)=O [Example 31, (R)-(1-((3-(4-(hydroxyamino)-3-methyl-3-(methylsulfonyl)-4-oxobutyl)-4-oxo-3,4-dihydroquinazolin-7-yl)buta-1,3-diyn-1-yl)cyclopropyl)methyl dihydrogen phosphate]				0.5	> 16	> 16
CN(C)CC#CC#Cc1cc2ncn(CC[C@](C)(C(=O)NO)S(C)(=O)=O)c(=O)c2cc1F.O=CO [Example 32, (R)-4-(7-(5-(dimethylamino)penta-1,3-diyn-1-yl)-6-fluoro-4-oxoquinazolin-3(4H)-yl)-N-hydroxy-2-methyl-2-(methylsulfonyl)butanamide formate]	0.5	2	0.25			
C[C@@](CCn1cnc2cc(C#CC#CC3(CO)CCC3)c(F)cc2c1=O)(C(=O)NO)S(C)(=O)=O [Example 34, (R)-4-(6-fluoro-7-((1-(hydroxymethyl)cyclobutyl)buta-1,3-diyn-1-yl)-4-oxoquinazolin-3(4H)-yl)-N-hydroxy-2-methyl-2-(methylsulfonyl)butanamide]	1 (≈ 2.04 µM)	2 (≈ 4.09 µM)	0.25 (≈ 0.511 µM)			
C[C@@](CCn1cnc2cc(C#CC#CCC3(O)COC3)c(F)cc2c1=O)(C(=O)NO)S(C)(=O)=O [Example 35, (R)-4-(6-fluoro-7-(5-(3-hydroxyoxetan-3-yl)penta-1,3-diyn-1-yl)-4-oxoquinazolin-3(4H)-yl)-N-hydroxy-2-methyl-2-(methylsulfonyl)butanamide]	4 (≈ 8.14 µM)	4 (≈ 8.14 µM)	4 (≈ 8.14 µM)			
